Experimental data as given in patent publication US9067989B2, “Eotaxin-2 (CCL24) inhibitors in inflammatory, autoimmune, and cardiovascular disorders” (THE MEDICAL RESEARCH, INFRASTRUCTURE, AND HEALTH SERVICES …, priority 2009, dated 2015).

System: adjuvant induced arthritis
Experiment: Adjuvant induced arthritis in Lewis rats
Format: in vivo, rat
Settings: D8 100 μg 3x/week, methotrexate 0.25 mg/kg once weekly, from day 3, compared to PBS
Method: Adjuvant arthritis was induced in Lewis rats (six-week-old male Lewis rats obtained from Harlan, Israel) by injection of […]. […] was prepared by suspending heat-killed Mycobacterium Tuberculosis (Difco, Detroit, Mich.) in mineral oil at 10 mg/ml. Rats were injected intradermally with 100 μl adjuvant at the base of the tail. Arthritis developed by day 10 post injection.
Rats (8 per group) were treated by intraperitoneal (IP) injection with 3 monoclonal antibodies against eotaxin-2, (G7, G8, D8) 3×/week. Controls were treated with total mouse (non specific) IgG or PBS. Injections were started on the third day after adjuvant administration and were performed three times a week until the rats were sacrificed. […]
Arthritis severity was evaluated by measuring body weight, paw swelling, arthritic score and whole animal mobility. […]
Body weight in grams was measured every other day as an indicator of systemic inflammation.
Evaluation of Paw swelling. Ankle and wrist diameter in mm (to one place after the decimal point) were recorded three times a week using a caliper. […]
Finger and toe swelling was recorded according to their partial contribution: Ankles (feet): each toe scored 0.2; Wrist: each finger scored 0.25 Sum of all joints was calculated.
Whole animal Mobility was scored between 0-4, according to the following definitions: […]

**Q.** What does the source list for `CN(Cc1cnc2nc(N)nc(N)c2n1)c1ccc(C(=O)N[C@@H](CCC(=O)O)C(=O)O)cc1` [methotrexate]?
**A.** protection against development of arthritis (arthritic score), prevention mode: significant, comparable protection; protection against development of arthritis (arthritic score), prevention mode (listed as MTX): statistically significant effect (p<0.05)
